Experimental findings from patent US10172814B2, “Substituted pyridyl-cycloalkyl-carboxylic acids, compositions containing them and medical uses thereof” (BAYER PHARMA AKTIENGESELLSCHAFT, priority 2014, dated 2019) are described below.

Sequence of human PTGES (O14684 whole entry): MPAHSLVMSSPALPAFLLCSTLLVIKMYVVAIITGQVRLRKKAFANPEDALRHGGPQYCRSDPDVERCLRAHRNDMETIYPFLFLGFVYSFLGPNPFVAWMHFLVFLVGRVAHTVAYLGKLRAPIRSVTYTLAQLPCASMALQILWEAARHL

The target in the assay is human PTGES (Homo sapiens (Human), UniProt O14684). Put plainly: Human PTGES biochemical enzyme inhibition assay (conversion of PGH2 to PGE2, TR-FRET). The following applies: Enzymatic conversion of PGH2 to PGE2; read-out: Human PTGES IC50. In outline:
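FLAG-tagged human PTGES from Hi-5 insect cells preincubated 15–20 min with compound in pH 7.2 phosphate buffer with 2.5 mM reduced glutathione; reaction started with 8 nM PGH2 final, stopped with SnCl2/KF.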
(In general: In TR-FRET formats the signal depends on donor and acceptor labels being close together.)
Usually IC50 stands for the point on the concentration scale where inhibition reaches its midpoint. With `Cc1c(CCC(=O)O)cccc1NC(=O)C(c1ccc(-c2cncc(OC(C)C)c2)c(F)c1)C1CCC1` (single isomer, unassigned; (-)) [Example 209, (−) 3-[3-({cyclobutyl[3-fluoro-4-(5-isopropoxypyridin-3-yl)phenyl]acetyl}amino)-2-methylphenyl]propanoic acid, Single Enantiomer], the concentration for half-maximal inhibition (IC50) amounted to 39.3 nM. The same measure for `CCc1cncc(-c2ccc(C(C(=O)Nc3cccc(CCC(=O)O)c3C)C3CCC3)cc2F)c1` (single isomer, unassigned; (-)) [Example 210, (−) 3-[3-({cyclobutyl[4-(5-ethylpyridin-3-yl)-3-fluorophenyl]acetyl}amino)-2-methylphenyl]propanoic acid, Single Enantiomer]: 35 nM.

Consider `Cc1c(CC(C)C(=O)O)cccc1NC(=O)C(c1ccc(-c2cncc(C(F)(F)F)c2)cc1)C1CCCC1` (single isomer, unassigned; stereoisomer 1) [Example 69, 3-{3-[(Cyclopentyl{4-[5-(trifluoromethyl)pyridin-3-yl]phenyl}acetyl)amino]-2-methylphenyl}-2-methylpropanoic acid, Stereoisomer 1], for which the half-inhibitory concentration (IC50) worked out at 8740 nM.

For the molecule `Cc1ncc(-c2ccc(C(C(=O)Nc3cccc(CC(C)C(=O)O)c3C)C3CCCC3)cc2)cc1Cl` (single isomer, unassigned; stereoisomer 1) [Example 83, 3-[3-({[4-(5-Chloro-6-methylpyridin-3-yl)phenyl](cyclopentyl)acetyl}amino)-2-methylphenyl]-2-methylpropanoic acid, Stereoisomer 1], the IC50 is 11700 nM. The same measure for `Cc1c(NC(=O)C(c2ccc(-c3cncc(C(F)(F)F)c3)c(F)c2)C2CCCC2)cccc1C(C)CC(=O)O` (single isomer, unassigned; stereoisomer 1) [Example 116, 3-{3-[(Cyclopentyl{3-fluoro-4-[5-(trifluoromethyl)pyridin-3-yl]phenyl}acetyl)amino]-2-methylphenyl}butanoic acid, Stereoisomer 1]: 3.49 nM. The figure for `Cc1ncc(-c2ccc(C(C(=O)Nc3cccc(C(C)CC(=O)O)c3C)C3CCCC3)cc2F)cc1Cl` (single isomer, unassigned; stereoisomer 1) [Example 121, 3-[3-({[4-(5-Chloro-6-methylpyridin-3-yl)-3-fluorophenyl](cyclopentyl)acetyl}amino)-2-methylphenyl]butanoic acid, Stereoisomer 1] is 382 nM; for `Cc1c(NC(=O)C(c2ccc(-c3cncc(Cl)c3)c(F)c2)C2CCCC2)cccc1C(C)CC(=O)O` (single isomer, unassigned; stereoisomer 1) [Example 126, 3-[3-({[4-(5-Chloropyridin-3-yl)-3-fluorophenyl](cyclopentyl)acetyl}amino)-2-methylphenyl]butanoic acid, Stereoisomer 1] it is 646 nM; for `Cc1c(NC(=O)C(c2ccc(-c3cncc(Cl)c3)cc2)C2CCC2)cccc1C(C)CC(=O)O` (single isomer, unassigned; stereoisomer 1) [Example 136] it is 12.7 nM. The same measure for `Cc1c(NC(=O)C(c2ccc(-c3cncc(C(F)(F)F)c3)c(F)c2)C2CCC2)cccc1C(C)CC(=O)O` (single isomer, unassigned; stereoisomer 1) [Example 147, 3-{3-[(Cyclobutyl{3-fluoro-4-[5-(trifluoromethyl)pyridin-3-yl]phenyl}acetyl)amino]-2-methylphenyl}butanoic acid, Stereoisomer 1]: 1310 nM; for `Cc1c(NC(=O)C(c2ccc(-c3cncc(Cl)c3)c(F)c2)C2CCC2)cccc1C(C)CC(=O)O` (single isomer, unassigned; stereoisomer 1) [Example 150, 3-[3-({[4-(5-Chloropyridin-3-yl)-3-fluorophenyl](cyclobutyl)acetyl}amino)-2-methylphenyl]butanoic acid, Stereoisomer 1]: 2620 nM; for `Cc1c(CC(C)C(=O)O)cccc1NC(=O)C(c1ccc(-c2cncc(C(F)(F)F)c2)cc1)C1CCCC1` (single isomer, unassigned; stereoisomer 2) [Example 70, 3-{3-[(Cyclopentyl{4-[5-(trifluoromethyl)pyridin-3-yl]phenyl}acetyl)amino]-2-methylphenyl}-2-methylpropanoic acid, Stereoisomer 2]: 52.9 nM. For `Cc1ncc(-c2ccc(C(C(=O)Nc3cccc(CC(C)C(=O)O)c3C)C3CCCC3)cc2)cc1Cl` (single isomer, unassigned; stereoisomer 2) [Example 84, 3-[3-({[4-(5-Chloro-6-methylpyridin-3-yl)phenyl](cyclopentyl)acetyl}amino)-2-methylphenyl]-2-methylpropanoic acid, Stereoisomer 2], the IC50 worked out at 41.1 nM. The same measure for `Cc1c(NC(=O)C(c2ccc(-c3cncc(C(F)(F)F)c3)c(F)c2)C2CCCC2)cccc1C(C)CC(=O)O` (single isomer, unassigned; stereoisomer 2) [Example 117, 3-{3-[(Cyclopentyl{3-fluoro-4-[5-(trifluoromethyl)pyridin-3-yl]phenyl}acetyl)amino]-2-methylphenyl}butanoic acid, Stereoisomer 2]: 15.6 nM; for `Cc1ncc(-c2ccc(C(C(=O)Nc3cccc(C(C)CC(=O)O)c3C)C3CCCC3)cc2F)cc1Cl` (single isomer, unassigned; stereoisomer 2) [Example 122, 3-[3-({[4-(5-Chloro-6-methylpyridin-3-yl)-3-fluorophenyl](cyclopentyl)acetyl}amino)-2-methylphenyl]butanoic acid, Stereoisomer 2]: 22.8 nM; for `Cc1c(NC(=O)C(c2ccc(-c3cncc(Cl)c3)c(F)c2)C2CCCC2)cccc1C(C)CC(=O)O` (single isomer, unassigned; stereoisomer 2) [Example 127, 3-[3-({[4-(5-Chloropyridin-3-yl)-3-fluorophenyl](cyclopentyl)acetyl}amino)-2-methylphenyl]butanoic acid, Stereoisomer 2]: 31.5 nM.

Regarding `Cc1c(NC(=O)C(c2ccc(-c3cncc(Cl)c3)cc2)C2CCC2)cccc1C(C)CC(=O)O` (single isomer, unassigned; stereoisomer 2) [Example 137], the IC50 was found to be 2900 nM. The same measure for `Cc1c(NC(=O)C(c2ccc(-c3cncc(C(F)(F)F)c3)c(F)c2)C2CCC2)cccc1C(C)CC(=O)O` (single isomer, unassigned; stereoisomer 2) [Example 148, 3-{3-[(Cyclobutyl{3-fluoro-4-[5-(trifluoromethyl)pyridin-3-yl]phenyl}acetyl)amino]-2-methylphenyl}butanoic acid, Stereoisomer 2]: 24.2 nM; for `Cc1c(NC(=O)C(c2ccc(-c3cncc(Cl)c3)c(F)c2)C2CCC2)cccc1C(C)CC(=O)O` (single isomer, unassigned; stereoisomer 2) [Example 151, 3-[3-({[4-(5-Chloropyridin-3-yl)-3-fluorophenyl](cyclobutyl)acetyl}amino)-2-methylphenyl]butanoic acid, Stereoisomer 2]: 46.5 nM. The figure for `Cc1c(CC(C)C(=O)O)cccc1NC(=O)C(c1ccc(-c2cncc(C(F)(F)F)c2)cc1)C1CCCC1` (single isomer, unassigned; stereoisomer 3) [Example 71, 3-{3-[(Cyclopentyl{4-[5-(trifluoromethyl)pyridin-3-yl]phenyl}acetyl)amino]-2-methylphenyl}-2-methylpropanoic acid, Stereoisomer 3] is 15900 nM; for `Cc1c(NC(=O)C(c2ccc(-c3cncc(C(F)(F)F)c3)c(F)c2)C2CCCC2)cccc1C(C)CC(=O)O` (single isomer, unassigned; stereoisomer 3) [Example 118, 3-{3-[(Cyclopentyl{3-fluoro-4-[5-(trifluoromethyl)pyridin-3-yl]phenyl}acetyl)amino]-2-methylphenyl}butanoic acid, Stereoisomer 3] it is 383 nM. The same measure for `Cc1ncc(-c2ccc(C(C(=O)Nc3cccc(C(C)CC(=O)O)c3C)C3CCCC3)cc2F)cc1Cl` (single isomer, unassigned; stereoisomer 3) [Example 123, 3-[3-({[4-(5-Chloro-6-methylpyridin-3-yl)-3-fluorophenyl](cyclopentyl)acetyl}amino)-2-methylphenyl]butanoic acid, Stereoisomer 3]: 646 nM; for `Cc1c(NC(=O)C(c2ccc(-c3cncc(Cl)c3)c(F)c2)C2CCCC2)cccc1C(C)CC(=O)O` (single isomer, unassigned; stereoisomer 3) [Example 128, 3-[3-({[4-(5-Chloropyridin-3-yl)-3-fluorophenyl](cyclopentyl)acetyl}amino)-2-methylphenyl]butanoic acid, Stereoisomer 3]: 1730 nM; for `Cc1c(NC(=O)C(c2ccc(-c3cncc(Cl)c3)cc2)C2CCC2)cccc1C(C)CC(=O)O` (single isomer, unassigned; stereoisomer 3) [Example 138]: 2040 nM. Regarding `Cc1c(NC(=O)C(c2ccc(-c3cncc(Cl)c3)c(F)c2)C2CCC2)cccc1C(C)CC(=O)O` (single isomer, unassigned; stereoisomer 3) [Example 152, 3-[3-({[4-(5-Chloropyridin-3-yl)-3-fluorophenyl](cyclobutyl)acetyl}amino)-2-methylphenyl]butanoic acid, Stereoisomer 3], the IC50 was determined as 914 nM. The same measure for `Cc1c(CC(C)C(=O)O)cccc1NC(=O)C(c1ccc(-c2cncc(C(F)(F)F)c2)cc1)C1CCCC1` (single isomer, unassigned; stereoisomer 4) [Example 72, 3-{3-[(Cyclopentyl{4-[5-(trifluoromethyl)pyridin-3-yl]phenyl}acetyl)amino]-2-methylphenyl}-2-methylpropanoic acid, Stereoisomer 4]: 71 nM; for `CCC(CC(=O)O)c1cccc(NC(=O)C(c2ccc(-c3cncc(F)c3)cc2)C2CCCC2)c1C` (single isomer, unassigned; stereoisomer 4) [Example 106, 3-[3-({[4-(5-Fluoropyridin-3-yl)phenyl](cyclopentyl)acetyl}amino)-2-methylphenyl]pentanoic acid, Stereoisomer 4]: 156 nM.
